This note sets out measurements from US12428394B2, “2,4-disubstituted pyrimidine derivative, preparation method therefor and use thereof” (CHENGDU ZENITAR BIOMEDICAL TECHNOLOGY CO., LTD., priority 2019, dated 2025).

Structures are written as SMILES. A value given as a limit tells only on which side of the number the result lay.

One test addresses T1, JAK2 (Homo sapiens, UniProt O60674).
T1 construct: purchased Eurofins
Briefly: In vitro kinase activity experiment, JAK2. It is filed as biochemical. The following applies: inhibition rate of enzyme at 500 nM; measured by Eurofins. The method, then: (§1) Buffer solution ([…], pH 7.0, 0.2 mm EDTA, 10 mM mncl2), kinase to be tested, substrate of kinase to be tested, 10 mM magnesium acetate and γ33P-ATP solution, and compounds with different concentrations were added to a reaction tube in turn, then MgATP was added to initiate the enzyme reaction process, and incubated at room temperature for 40 min. Then, the reaction was terminated with 5 μl of […], and 10 μl of the reaction solution was titrated onto the Filtermat A membrane, washed with 75 mM phosphate solution for three times, each time for 5 min., and then washed with methanol once. Finally, the Filtermat A membrane was dried and the scintillation count was carried out.

The test system of test [1] is MOLM-13 cells (FLT3-ITD-/+). As to the kind of experiment: Inhibition of cell proliferation by MTT experiment, MOLM-13. The class given is cell-based, human. The settings on record: Homo sapiens, MOLM-13; MTT, 72 h; read-out: IC50 value on cell proliferation inhibition, MOLM-13 FLT3-ITD-/+. An excerpt:
(§2) MV4-11, MOLM-13 and SET-2 were used to determine the influence of the test compound of the present invention on the activity of cancer cells. MV4-11 and MOLM-13 were human leukemia cell lines from American Type Culture Collection (ATCC), expressing FLT3 receptor and containing FLT3-ITD mutation; and SET-2 was a primary thrombocythemia cell purchased from Chengdu Bowerston Biotechnology Co., Ltd., China, continuously expressing JAK2 receptor and containing the mutation of V617F.
(§3) MV4-11, MOLM-13 and SET-2 cells were filled in a 96-well petri dish with 100 μL IMDM as the medium, containing 10% fetal bovine serum (100 mL/bottle, purchased from Grassland Lvye Bio-Engineering Materials Co., Ltd. and cryopreserved at −20° C.), and with 10,000-15,000 cells in each well. […] In each group, 3-5 replicate wells were set and incubated in 5% CO2 at 37° C. for 72 h. At the endpoint, 20 μL MTT (5 mg/mL) was added to each well, and the cells were incubated for another 1-3 h.
(§4) After the inhibition rate of each concentration of compound on cell proliferation activity was calculated, the dose-response curve and IC50 value were fitted by Graphpad prism software according to the compound treatment concentrations and corresponding inhibition rates.

A further test addresses T2, FLT3 (Homo sapiens, UniProt P36888).
T2 construct: purchased Eurofins
T2 sequence (P36888 27-993): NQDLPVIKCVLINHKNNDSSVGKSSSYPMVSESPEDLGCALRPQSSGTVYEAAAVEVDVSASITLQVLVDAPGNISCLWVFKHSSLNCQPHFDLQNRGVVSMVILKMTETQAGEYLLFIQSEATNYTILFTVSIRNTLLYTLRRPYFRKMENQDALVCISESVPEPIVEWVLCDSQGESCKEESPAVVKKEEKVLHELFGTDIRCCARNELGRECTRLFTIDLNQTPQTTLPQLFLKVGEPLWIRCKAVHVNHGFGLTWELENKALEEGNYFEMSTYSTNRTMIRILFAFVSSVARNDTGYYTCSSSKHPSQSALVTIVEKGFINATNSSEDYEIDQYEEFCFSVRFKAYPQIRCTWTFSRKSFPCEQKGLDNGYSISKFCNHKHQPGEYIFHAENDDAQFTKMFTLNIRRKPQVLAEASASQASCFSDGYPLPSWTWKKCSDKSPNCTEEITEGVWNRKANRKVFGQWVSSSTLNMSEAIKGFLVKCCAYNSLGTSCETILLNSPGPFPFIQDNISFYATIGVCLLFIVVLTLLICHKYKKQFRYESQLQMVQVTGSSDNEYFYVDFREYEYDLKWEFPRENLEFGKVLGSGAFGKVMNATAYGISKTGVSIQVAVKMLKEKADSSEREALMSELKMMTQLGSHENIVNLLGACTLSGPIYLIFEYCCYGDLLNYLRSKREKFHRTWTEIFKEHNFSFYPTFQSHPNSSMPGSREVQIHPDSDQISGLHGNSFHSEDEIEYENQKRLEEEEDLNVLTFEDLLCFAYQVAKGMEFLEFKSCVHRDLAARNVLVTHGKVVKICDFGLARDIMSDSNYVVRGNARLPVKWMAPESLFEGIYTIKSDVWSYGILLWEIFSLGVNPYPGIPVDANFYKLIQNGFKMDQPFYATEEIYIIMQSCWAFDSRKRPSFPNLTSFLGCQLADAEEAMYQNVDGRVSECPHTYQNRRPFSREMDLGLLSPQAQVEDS
Briefly: In vitro kinase activity experiment, FLT3. It is filed as biochemical. The following applies: 40 min; inhibition rate of enzyme at 500 nM; measured by Eurofins; read-out: Kinase activity @ 500 nM (%) FLT3. The method, then: as §1

A further test concerns SET-2 cells (JAK2 V617F). Briefly: Inhibition of cell proliferation by MTT experiment, SET-2. The following applies: Homo sapiens, SET-2; MTT, 72 h; read-out: IC50 value on cell proliferation inhibition, SET-2 (V617F). It is filed as cell-based.
Excerpt: as §2, §3, §4

Test [2] deals with MV4-11 cells (FLT3-ITD+/+). Briefly: Inhibition of cell proliferation by MTT experiment, MV4-11. The class given is cell-based, human. The settings on record: Homo sapiens, MV4-11; MTT, 72 h; read-out: IC50 value on cell proliferation inhibition, MV4-11 FLT3-ITD+/+.
Excerpt: as §2, §3, §4

T1 sequence (O60674 whole entry): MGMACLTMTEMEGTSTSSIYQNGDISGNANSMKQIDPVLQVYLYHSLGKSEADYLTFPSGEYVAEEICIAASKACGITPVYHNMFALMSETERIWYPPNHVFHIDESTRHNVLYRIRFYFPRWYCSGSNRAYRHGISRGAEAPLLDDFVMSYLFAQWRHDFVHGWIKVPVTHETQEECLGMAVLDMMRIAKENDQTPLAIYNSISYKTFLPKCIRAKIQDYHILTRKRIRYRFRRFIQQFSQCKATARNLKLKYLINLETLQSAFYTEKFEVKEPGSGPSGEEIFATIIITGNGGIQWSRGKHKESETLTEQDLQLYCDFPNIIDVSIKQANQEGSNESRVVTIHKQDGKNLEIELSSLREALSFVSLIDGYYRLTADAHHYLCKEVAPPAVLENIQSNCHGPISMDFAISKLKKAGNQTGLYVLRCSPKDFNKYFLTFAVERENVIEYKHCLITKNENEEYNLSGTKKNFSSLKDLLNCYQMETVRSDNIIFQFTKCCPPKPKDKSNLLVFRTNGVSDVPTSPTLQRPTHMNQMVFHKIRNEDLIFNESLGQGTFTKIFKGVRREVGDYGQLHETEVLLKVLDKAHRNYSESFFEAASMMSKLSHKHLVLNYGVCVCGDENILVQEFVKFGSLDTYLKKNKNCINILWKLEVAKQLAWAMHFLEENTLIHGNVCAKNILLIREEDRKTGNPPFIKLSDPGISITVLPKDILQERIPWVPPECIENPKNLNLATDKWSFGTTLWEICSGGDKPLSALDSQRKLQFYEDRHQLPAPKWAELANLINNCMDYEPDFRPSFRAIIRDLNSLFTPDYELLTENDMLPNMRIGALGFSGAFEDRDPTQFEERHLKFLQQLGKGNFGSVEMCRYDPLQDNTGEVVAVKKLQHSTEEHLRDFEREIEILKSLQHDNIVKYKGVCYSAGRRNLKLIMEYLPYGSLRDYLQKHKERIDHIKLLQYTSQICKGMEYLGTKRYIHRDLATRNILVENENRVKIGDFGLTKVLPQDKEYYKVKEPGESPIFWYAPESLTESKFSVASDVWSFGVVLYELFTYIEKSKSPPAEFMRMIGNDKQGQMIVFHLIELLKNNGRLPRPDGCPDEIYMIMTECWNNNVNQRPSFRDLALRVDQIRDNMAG

With `CC(C)N1CCN(Cc2ccc(Nc3ncc(F)c(-c4ccc(CN5CCCC5)o4)n3)nc2)CC1` [CLJ-1, 5-fluoro-N-(5-((4-isopropylpiperazine-1-yl)methyl)pyridine-2-yl)-4-(5-(pyrrolidine-1-ylmethyl)furan-2-yl) pyrimidine-2-amine], the “Kinase activity @ 500 nM (%) JAK2” value at JAK2 stood at 46%. Also, the IC50 in test [1] is 0.1 to 1 µM; in the test on SET-2 cells (JAK2 V617F), above 1 µM; in test [2], 0.1 to 1 µM. The inhibition at 0.5 µM at FLT3 turned out to be 33%.

In the case of `CCN1CCN(c2ccc(Nc3ncc(F)c(-c4ccc(CN5CCCC5)o4)n3)nc2)CC1` [CLJ-2], the “Kinase activity @ 500 nM (%) JAK2” value on JAK2 stood at 30%. For the same molecule, the IC50 in test [1] was 0.1 to 1 µM; in the test on SET-2 cells (JAK2 V617F), above 1 µM; in test [2], 0.1 to 1 µM. The inhibition at 0.5 µM on FLT3 was determined as 25%.

For the molecule `CC(C)N1CCN(Cc2ccc(Nc3ncc(F)c(-c4ccc(CN5CCc6ccccc65)o4)n3)nc2)CC1` [CLJ-3, 5-fluoro-4-(5-(dihydroindole-1-ylmethyl)furan-2-yl)-N-(5-((4-isopropylpiperazine-1-yl)methyl)pyridine-2-yl) pyrimidine-2-amine], the “Kinase activity @ 500 nM (%) JAK2” value at JAK2 was 45%. Also, the IC50 was 0.1 to 1 µM in test [1], above 1 µM in the test on SET-2 cells (JAK2 V617F) and 0.1 to 1 µM in test [2]. The inhibition at 0.5 µM at FLT3 worked out at 29%.

Regarding `CCCn1cc(-c2nc(Nc3cc(CN4CCCC(C)C4)c(F)cn3)ncc2F)cn1` (stereo not drawn) [CLJ-4, 5-fluoro-N-(5-fluoro-4-((3-methylpiperidine-1-yl)methyl)pyridine-2-yl)-4-(1-propyl-1H-pyrazole-4-yl) pyrimidine-2-amine], on JAK2, the “Kinase activity @ 500 nM (%) JAK2” value was 38%. Moreover, the IC50 in test [1] was 0.1 to 1 µM; in the test on SET-2 cells (JAK2 V617F), above 1 µM; in test [2] it was 0.1 to 1 µM. Also, at FLT3, the inhibition at 0.5 µM was determined as 28%.

As to `CCCn1cc(-c2nc(Nc3cc(CN4CCN(CC)CC4)c(F)cn3)ncc2F)cn1` [CLJ-5, 5-fluoro-N-(5-fluoro-4-((4-ethylpiperazine-1-yl)methyl)pyridine-2-yl)-4-(1-propyl-1H-pyrazole-4-yl) pyrimidine-2-amine], on JAK2, the “Kinase activity @ 500 nM (%) JAK2” value was 40%. The IC50 is 0.1 to 1 µM in test [1], above 1 µM in the test on SET-2 cells (JAK2 V617F) and 0.1 to 1 µM in test [2]. Further, the inhibition at 0.5 µM at FLT3 came out at 34%.

On to `CCCn1cc(-c2nc(Nc3ccc(N4CCN(C)CC4)cc3F)ncc2F)cn1` [CLJ-6, 5-fluoro-N-(2-fluoro-4-(4-methylpiperazine-1-yl)phenyl)-4-(1-propyl-1H-pyrazol-4-yl) pyrimidine-2-amine], for which the “Kinase activity @ 500 nM (%) JAK2” value at JAK2 came out at 30%. Further, the IC50 (in test [1]; in the test on SET-2 cells (JAK2 V617F); in test [2]) was above 1 µM throughout. Also, the inhibition at 0.5 µM on FLT3 turned out to be 34%.

Regarding `CCCn1cc(-c2nc(Nc3ccc(N4CCN(C)CC4)c(F)c3)ncc2F)cn1` [CLJ-7, 5-fluoro-N-(3-fluoro-4-(4-methylpiperazine-1-yl)phenyl)-4-(1-propyl-1H-pyrazol-4-yl) pyrimidine-2-amine], the “Kinase activity @ 500 nM (%) JAK2” value on JAK2 is recorded as 38%. Moreover, the IC50 in test [1] was 0.1 to 1 µM; with SET-2 cells (JAK2 V617F), above 1 µM; in test [2], 0.1 to 1 µM. The inhibition at 0.5 µM at FLT3 was 28%.

Consider `CCCn1cc(-c2nc(Nc3ccc(N4CCN(CC)CC4)cc3F)ncc2F)cn1` [CLJ-8, 5-fluoro-N-(2-fluoro-4-(4-ethylpiperazine-1-yl)phenyl)-4-(1-propyl-1H-pyrazole-4-yl) pyrimidine-2-amine], for which the “Kinase activity @ 500 nM (%) JAK2” value at JAK2 is listed as 30%. In addition, the IC50 was 0.1 to 1 µM in test [1], above 1 µM in the test on SET-2 cells (JAK2 V617F) and 0.1 to 1 µM in test [2]. Also, the inhibition at 0.5 µM on FLT3 turned out to be 40%.

For `CCCn1cc(-c2nc(Nc3ccc(N4CCN(CC)CC4)c(F)c3)ncc2F)cn1` [CLJ-9, 5-fluoro-N-(3-fluoro-4-(4-ethylpiperazine-1-yl)phenyl)-4-(1-propyl-1H-pyrazole-4-yl) pyrimidine-2-amine], the “Kinase activity @ 500 nM (%) JAK2” value on JAK2 turned out to be 27%. The IC50 in test [1] is 0.1 to 1 µM; in the test on SET-2 cells (JAK2 V617F) it was above 1 µM; in test [2], 0.01 to 0.1 µM. The inhibition at 0.5 µM at FLT3 was found to be 20%.
